Laboratory results: EPA's ToxValDB 9.5 (doi:10.2903/j.efsa.2006.58r)

Assays:
Aphidius rhopalosiphi = experiment: LR50; higher = less toxic; conditions: not reported; mortality
Typhlodromus pyri = experiment: LR50; higher = less toxic; conditions: not reported; mortality
Pimephales promelas = conditions: chronic/long-term; duration: 32 days
Anas platyrhynchos = conditions: acute; oral; unspecified; mortality
Plant = conditions: not reported; no effects
Apis mellifera = conditions: acute, mortality
Bibionidae = conditions: chronic/long-term; duration: 40 days
Pontoscolex corethrurus = conditions: for NOEC: chronic/long-term
Daphnia magna = conditions: chronic/long-term; duration: 21 days
Oncorhynchus mykiss = conditions: acute; duration: 96 hours; mortality

Compound: COc1cc(C)c(C(=O)c2c(OC)ccc(Br)c2C)c(OC)c1OC [Metrafenone]
- LR50 (Aphidius rhopalosiphi): > 300 g/ha
- LR50 (Typhlodromus pyri): > 500 g/ha
- NOEC (Colinus virginianus; reproduction developmental): 125 mg/kg-day
- NOEC (Colinus virginianus; short-term, oral, diet): > 948 mg/kg-day
- NOEC (Pimephales promelas): 0.228 mg/L
- LD50 (Anas platyrhynchos): > 2020 mg/kg-day
- LEL (Plant): 300 g/ha
- LD50 (Apis mellifera; dermal): > 100 µg/piece
- LD50 (Apis mellifera; oral, unspecified): > 114 µg/piece
- NOEC (Bibionidae): 1 mg/L
- LC50 (Pontoscolex corethrurus; acute, mortality): > 250 mg/kg
- NOEC (Pontoscolex corethrurus): 10.4 mg/kg
- NOEC (Pontoscolex corethrurus; reproduction): 3 mg/kg
- NOEC (Daphnia magna): 0.225 mg/L
- LD50 (Rattus norvegicus; acute, oral, mortality): > 5000 mg/kg-day
- NOAEL (Rattus norvegicus; chronic, duration: 2 years, oral, histopathology: neoplastic): 25 mg/kg-day
- NOAEL (Rattus norvegicus; reproduction developmental): 811 mg/kg-day
- NOAEL (Rattus norvegicus; subchronic, duration: 13 weeks, oral, organ weight): 43 mg/kg-day
- LC50 (Oncorhynchus mykiss): > 0.82 µg/mL
